Measured values reported in US12668568B2, “Adamantanyl-substituted benzamide compounds and their use as P2X7 receptor antagonists” (The University of Sydney, priority 2018, dated 2026).

Key:
[1] = Brain tissue binding, rapid equilibrium dialysis; type: in vitro ADME; details: rat brain tissue, 4 hours 37° C., read-out: pb (% bound) Brain (converted)
Experimental: (§1) Determining the extent to which a molecule binds to factors present within plasma and brain is a critical phase of drug development as this determines not only the free unbound fraction available to exert the desired pharmacological actions but also influences dosing, clearance rate and the potential for drug-drug interactions. Binding is measured with the rapid equilibrium dialysis technique using cartridges consisting of two compartments (sample and buffer chamber) separated by a dialysis membrane.
(§2) All compounds are prepared in 100% DMSO to provide 10 mM stock solutions. Sample material is prepared by spiking a known volume of plasma or brain with the stock solution such that the final concentration of compound is 1 μM. This is placed in the sample chamber of the dialysis cartridge. Dialysis buffer is then added to the buffer chamber and the cartridge incubated at 37° C. for 4 hours. Following the incubation the test compound concentrations are determined in the two chambers and the % free or bound component calculated using the equation below:
(§3) [formula] [formula] In Vivo Pharmacokinetic Studies

[2] = Lipophilicity: Log D7.4 determined by HPLC method; type: physicochemical; details: for lipophilicity compared with compound 31: HPLC logD7.4; for logD7.4 / chromatographic logD: HPLC retention time, 65 v/v % methanol in 50 mM sodium phosphate buffer pH 7.4; for chromatographic logD: reversed-phase HPLC, Waters Sunfire C18 5 µm column, read-out: logD7.4
Experimental: Lipophilicity of the compounds was evaluated by an experimentally derived Log D7.4 value determined by a HPLC method.^1 It is preferred that the lipophilicity of the compounds is as low as possible.
High Performance Liquid Chromatography was performed on a Waters 2695 Separations module equipped with the Waters Alliance Series Column Heater (set at 30° C.) and Waters 2996 Photodiode Array (PDA) Detector. […] Standards and samples were dissolved in the elution solvent mixture and then filtered prior to injection. Data acquisition and processing was performed with the Waters Empower 2 software and Microsoft Excel™ was used for data analysis. All standards and samples were analyzed in triplicate.
. An […] curve was obtained (FIG. 1) which was fitted to the equation [Log D7.4=0.8342(RET)+1.7393] with an R^2 of 0.97.
The RET from three injections was averaged with the log D7.4 value extrapolated from the equation found in FIG. 1.

[3] = Plasma protein binding, rapid equilibrium dialysis; type: in vitro ADME; details: rat plasma, 4 hours 37° C., read-out: pb (% bound) Plasma (converted)
Experimental: as §1, §2, §3

[4] = molecular target: T1, hP2X7R (Homo sapiens, UniProt Q99572); assay: Yo-Pro uptake assay for P2X7R pore formation in THP-1 cells; type: cell-based; design: Following an overnight incubation (16 h) required for THP-1 differentiation; endogenous in cells; host or cells: THP-1 (ATCC), differentiated with LPS and IFN-gamma; details: for IC50: THP-1 cells, BzATP 100 μM, YO-PRO-1, mean ± standard deviation, n >4, read-out: Dye uptake IC50 hP2X7R; for LLE: pIC50 from dye uptake and LogD from HPLC
T1 sequence (Q99572 1-595): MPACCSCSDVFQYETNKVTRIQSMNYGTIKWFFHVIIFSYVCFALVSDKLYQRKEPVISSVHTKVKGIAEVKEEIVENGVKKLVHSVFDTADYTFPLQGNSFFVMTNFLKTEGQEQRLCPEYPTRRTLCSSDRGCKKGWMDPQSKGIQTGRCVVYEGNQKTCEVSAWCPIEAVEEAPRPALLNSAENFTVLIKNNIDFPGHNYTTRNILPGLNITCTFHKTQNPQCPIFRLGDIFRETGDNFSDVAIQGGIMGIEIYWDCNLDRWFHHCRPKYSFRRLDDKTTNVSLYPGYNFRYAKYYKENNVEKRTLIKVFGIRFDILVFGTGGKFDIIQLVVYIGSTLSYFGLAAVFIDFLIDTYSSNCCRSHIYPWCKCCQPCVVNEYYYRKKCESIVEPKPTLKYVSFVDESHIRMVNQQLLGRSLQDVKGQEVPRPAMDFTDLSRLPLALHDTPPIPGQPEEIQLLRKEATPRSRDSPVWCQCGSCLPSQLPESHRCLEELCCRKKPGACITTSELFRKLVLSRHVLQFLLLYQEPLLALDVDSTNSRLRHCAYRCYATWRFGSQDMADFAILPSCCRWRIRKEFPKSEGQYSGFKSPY
Experimental: HEK293T cells transfected with cDNA for the human (HEK-hP2X7) or mouse P2X7 (HEK-mP2X7) receptor (a kind gift from Dr Leanne Stokes and Prof. Jim Wiley) were cultured in DMEM/F12 with 10% FBS and 500 μg/mL G418 (all from Invitrogen). Cells were cultured in 75 cm^2 flasks and incubated at 37° C. in a 5% CO2 humidified atmosphere, maintained in log phase of growth and passaged when cell density reached 1×10^6 cells/mL (every 2-3 days).^3
P2X7R pore formation was assessed by agonist-induced uptake of the Yo-Pro-1 iodide dye. […] Final treatments (in triplicate) were made up in phosphate buffered saline (PBS), without divalent cations, containing PRO®-1 dye (2 μM). Cells were washed once in pre-warmed PBS and treatments were added to cells, with or without 2′(3′)-O-(4-benzoylbenzoyl)adenosine 5′-triphosphate (BzATP, 100 μM) as agonist. Dye uptake was measured at 37° C. using a fluorescence plate reader (BMG Labtech); with data read at λEx485nm/λEm520nm at 30 sec intervals over a 70 min period. […] IC50 values were determined from concentration-response curves derived from a four-parameter variable slope, analyzed in GraphPad Prism® (San Diego, CA).

[5] = molecular target: T1, hP2X7R; assay: Radioligand binding assay, displacement of [3H]-Compound 31, HEK-hP2X7 membranes; details: displacement of tritium-labeled benzamide 31-t3, HEK cells expressing hP2X7R; mean ± standard deviation, n >3; read-out: Binding affinity Ki
Experimental: Homogenates were centrifuged at 48 000 g for 20 min at 4° C., the supernatant discarded and the pellet resuspended in Tris HCl 50 mM (pH 7.4 at 4° C.). Two additional spins at 48 000 g followed, discarding the supernatant each time and resuspending the pellet in 50 mM Tris HCl each time. Protein content was determined via bicinchoninic acid (BCA) assay (Pierce Biotechnology Inc., Rockford), the membrane solution supplemented with 0.1% bovine serum albumin (BSA) and stored at −80° C.
The incubation was terminated by rapid filtration through a glass fibre filter (GF/B; Millipore, Ireland), presoaked beforehand with 0.3% PEI) and washed 10 times with 50 mM Tris HCl (4° C.). The filters were then allowed to dry overnight before adding Microscint-0 scintillation cocktail (Perkin Elmer). […] For Kd and Bmax determination the specific binding was calculated (total binding minus non-specific binding) and analyzed using a one-site binding model (hyperbolic). The total binding and non-specific binding were also plotted for comparison (see FIG. 4). […] The extra sum of squares F-test was used to evaluate three potential models to fit the data; a one-site fit (with hill slope constrained to 1), a one-site fit (with hill slope as a variable) and a two-site fit. […] The Koff from dissociation studies was calculated using non-linear regression (exponential model) and then, in combination with the data from association studies, used to calculate the Kon. All data were analyzed using GraphPad Prism 5.

Row | Structure (SMILES) | fraction unbound at 4 h, 1 μM [1] | lipophilicity compared with compound 31 [2] | logD7.4 [2] | chromatographic logD [2] | fraction unbound at 4 h, 1 μM [3] | IC50 [4] [nM] | LLE [4] | Ki [5] [nM]
1 | COc1ccc(Cl)c(C(=O)NCC23CC4(F)CC(F)(CC(F)(C4)C2)C3)c1 [Compound 1, 2-Chloro-N-((3,5,7-trifluoroadamantan-1-yl)methyl)-5-methoxybenzamide] | 0.0549 | less lipophilic than compound 31 | 2.83 | 2.83 | 0.105 |  |  | 
2 | COc1ccc(Cl)c(C(=O)NCC23CC4CC(F)(CC(F)(C4)C2)C3)c1 [Compound 2, 2-Chloro-N-((3,5-difluoroadamantan-1-yl)methyl)-5-methoxybenzamide] | 0.085 | less lipophilic than compound 31 | 2.85 | 2.85 | 0.115 | 30.9 ± 8 | 4.66 | 23 ± 5
3 | COc1ccc(Cl)c(C(=O)NCC23CC4CC(CC(F)(C4)C2)C3)c1 [Compound 3, 2-Chloro-N-((3-fluoroadamantan-1-yl)methyl)-5-methoxybenzamide] | 0.0309 | less lipophilic than compound 31 | 3.27 | 3.27 | 0.0597 | 25.1 ± 2.7 | 4.33 | 21.9 ± 0.5
4 | COc1ccc(Cl)c(C(=O)NCC23CC4CC(CC(C4)C2)C3)c1 [Compound 31, reference compound] | 0.0027 |  | 4.23 | 4.23 | 0.0079 | 10.5 ± 3.1 | 3.75 | 8.5
